Results from patent US20200054601A1, “NOVEL METHODS” (Ethismos Research, Inc., priority 2018, published 2020).

Tests used:
[1] = Qualitative solubility testing of the test article in the test system; assay type: physicochemical; details: aqueous buffer; pH 7.4, potassium phosphate buffer, MgCl2, EDTA, human liver microsomes 0.0125 mg/mL; read-out: Soluble in the test system (visual comparison)
Protocol: Since stability of the test article solutions is not known, the stock solution and dilutions to working solutions are prepared fresh on the day of use.

[2] = cited from earlier work
[3] = cited from earlier work; for Help in smoking cessation: reported, nortriptyline as the sole pharmacotherapy
[4] = cited from earlier work; for Efficacy in MDD trials: phase 2 / phase 2b trials in MDD
CYP2A6 = target: T1, CYP2A6 (Homo sapiens, UniProt P11509); test: Inhibition of CYP2A6 coumarin 7-hydroxylation in human liver microsomes (direct, time- and metabolism-dependent); details: both, pH 7.4
T1 sequence (P11509 1-494): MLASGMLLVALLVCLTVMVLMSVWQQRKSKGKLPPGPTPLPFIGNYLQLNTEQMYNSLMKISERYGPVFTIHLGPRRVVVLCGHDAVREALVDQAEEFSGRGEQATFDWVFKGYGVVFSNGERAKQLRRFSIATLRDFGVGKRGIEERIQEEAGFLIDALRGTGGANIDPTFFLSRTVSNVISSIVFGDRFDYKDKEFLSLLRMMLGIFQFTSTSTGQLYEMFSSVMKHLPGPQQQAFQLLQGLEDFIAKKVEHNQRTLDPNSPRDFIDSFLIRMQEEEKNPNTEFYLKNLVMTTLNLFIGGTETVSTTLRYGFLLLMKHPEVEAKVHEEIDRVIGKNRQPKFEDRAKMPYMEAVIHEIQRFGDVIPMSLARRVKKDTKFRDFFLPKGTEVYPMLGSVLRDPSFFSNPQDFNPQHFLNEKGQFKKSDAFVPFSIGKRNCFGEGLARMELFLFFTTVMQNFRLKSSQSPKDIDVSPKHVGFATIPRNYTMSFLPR
Protocol: Known direct and metabolism-dependent inhibitors of CYP2A6 are included as positive controls.
Human liver microsomes from non-transplantable, donated livers are prepared and characterized at the testing facility as outlined by Pearce, R. et al., “Effects of Freezing, Thawing, and Storing Human Liver Microsomes on Cytochrome P450 Activity,” Archives of Biochemistry and Biophysics, 1996, 331 (2), 145-169 and Parkinson, A. et al., “The Effects of Gender, Age, Ethnicity and Liver Cirrhosis on Cytochrome P450 Enzyme Activity in Human Liver Microsomes and Inducibility in Cultured Human Hepatocytes,” Toxicology and Applied Pharmacology, 2004, 199 (3), 193-209. A mixed-gender pool of 200 individual human liver microsomal samples is used for this study (Sekisui XenoTech catalog number: H2610). The kinetic constants (S50 or Km) used to select marker substrate concentrations and incubation conditions are determined previously.
Incubation mixtures are prepared in bulk to obviate the need for directly pipetting very small volumes (i.e., 1 μL or less). The test article is dissolved in water and added directly to incubation mixtures.
A Tecan liquid handling system conducts all incubations. Duplicate aliquots of the buffer mixtures are automatically added to 96-well plates at the appropriate locations. […] The supernatant fractions are analyzed by liquid chromatography tandem mass spectrometry (LC-MS/MS). […]

For Clc1ccc([C@]23CNC[C@H]2C3)cc1Cl [Amitifadine, (1R,5S)-1-(3,4-dichlorophenyl)-3-azabicyclo[3.1.0]hexane], the solubility [1] is given as ≥ 200 µM, the “Effect size in depression” value ([2]; depression) is given as 0.6 and the Tolerability ([2]; given by mouth twice daily for up to 12 weeks) is given as “good tolerability”.
For CNCCC=C1c2ccccc2CCc2ccccc21 [nortriptyline], the “Help in smoking cessation” value [3] is given as “increases long-term smoking cessation”.
In the case of N[C@@H]1CC[C@@H](c2ccc(Cl)c(Cl)c2)c2ccccc21 [SEP-225289], the “Efficacy in MDD trials” value [4] is given as “failed to differentiate versus the comparators”.
Work on CN1CCCC1c1cccnc1 (centres unmarked) [Nicotine] yielded an inhibition at 5 min, 300 µM (CYP2A6) of 82.5%.
In the case of CN1Cc2cc(-c3ccc(N)nn3)ccc2[C@H](c2ccc3ccccc3c2)C1 [Liafensine], the “Efficacy in treatment resistant depression versus active comparators” value ([4]; two large phase 2b trials in TRD) is given as “no different from full-dose escitalopram (an SSRI) or duloxetine (an SNRI)”.
For COc1ccc(C(CN(C)C)C2(O)CCCCC2)cc1 (centres unmarked) [venlafaxine], the “Help in smoking cessation” value [3] is given as “has not been shown to help”.
For COC[C@@H]1[C@@H](c2ccc(Cl)c(Cl)c2)C[C@@H]2CC[C@H]1N2 [GSK-372475], the “Efficacy in MDD trials” value [4] is listed as “failed”.
In the case of c1cnc2cc3c(cc2n1)[C@@H]1CNC[C@H]3C1 [varenicline], the “One year abstinence rate” value ([3]; smoking cessation) is listed as 23% and the 6-month abstinence rate ([3]; smoking cessation, placebo 10.6%) is listed as 27.6%.
